Measurements reported in ChEMBL document CHEMBL3621090, “Discovery of a novel Kv7 channel opener as a treatment for epilepsy” (Bioorg Med Chem Lett, 2015).

How the values were obtained:
[1] = Toxicity in human THLE cells assessed as ATP depletion; format: cell-based
[2] = Intrinsic clearance in human liver microsomes measured over 1 hr in presence of NADPH regenerating system; format: ADME; settings: read-out: CLH
[3] = molecular target: Voltage-gated potassium channel, KQT; KCNQ2(Kv7.2)/KCNQ3(Kv7.3) (Homo sapiens, UniProt O43525+O43526); assay: (§1) Activation of human Kv7.2/7.3 expressed in CHOK1 cells; format: cell-based, CHO-K1; on max activation: test concentration or dose not given here
Chain of Voltage-gated potassium channel, KQT; KCNQ2(Kv7.2)/KCNQ3(Kv7.3) (O43526 whole entry): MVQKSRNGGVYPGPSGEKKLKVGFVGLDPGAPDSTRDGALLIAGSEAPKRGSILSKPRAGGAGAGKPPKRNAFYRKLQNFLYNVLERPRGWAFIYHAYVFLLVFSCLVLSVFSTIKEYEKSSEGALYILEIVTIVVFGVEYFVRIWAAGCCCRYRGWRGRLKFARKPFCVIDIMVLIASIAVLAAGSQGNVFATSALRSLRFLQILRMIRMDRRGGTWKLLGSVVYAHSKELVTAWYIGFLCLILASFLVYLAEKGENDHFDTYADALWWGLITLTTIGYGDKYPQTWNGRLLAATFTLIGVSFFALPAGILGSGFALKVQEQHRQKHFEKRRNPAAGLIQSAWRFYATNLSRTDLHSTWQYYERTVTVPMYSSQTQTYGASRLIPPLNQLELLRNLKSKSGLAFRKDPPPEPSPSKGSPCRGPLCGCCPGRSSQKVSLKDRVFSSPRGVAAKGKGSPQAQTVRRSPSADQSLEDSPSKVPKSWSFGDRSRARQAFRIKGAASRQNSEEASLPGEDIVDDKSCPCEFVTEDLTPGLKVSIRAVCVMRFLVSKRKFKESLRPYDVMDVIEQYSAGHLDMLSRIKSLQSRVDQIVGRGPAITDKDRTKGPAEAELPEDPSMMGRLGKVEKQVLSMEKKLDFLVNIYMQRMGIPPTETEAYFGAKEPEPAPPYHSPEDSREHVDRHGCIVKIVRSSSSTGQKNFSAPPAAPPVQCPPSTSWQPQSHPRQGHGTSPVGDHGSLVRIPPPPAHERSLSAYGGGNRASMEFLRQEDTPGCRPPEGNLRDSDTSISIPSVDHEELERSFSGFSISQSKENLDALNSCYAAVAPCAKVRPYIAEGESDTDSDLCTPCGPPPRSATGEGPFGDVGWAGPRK
Chain of Voltage-gated potassium channel, KQT; KCNQ2(Kv7.2)/KCNQ3(Kv7.3) (O43525 whole entry): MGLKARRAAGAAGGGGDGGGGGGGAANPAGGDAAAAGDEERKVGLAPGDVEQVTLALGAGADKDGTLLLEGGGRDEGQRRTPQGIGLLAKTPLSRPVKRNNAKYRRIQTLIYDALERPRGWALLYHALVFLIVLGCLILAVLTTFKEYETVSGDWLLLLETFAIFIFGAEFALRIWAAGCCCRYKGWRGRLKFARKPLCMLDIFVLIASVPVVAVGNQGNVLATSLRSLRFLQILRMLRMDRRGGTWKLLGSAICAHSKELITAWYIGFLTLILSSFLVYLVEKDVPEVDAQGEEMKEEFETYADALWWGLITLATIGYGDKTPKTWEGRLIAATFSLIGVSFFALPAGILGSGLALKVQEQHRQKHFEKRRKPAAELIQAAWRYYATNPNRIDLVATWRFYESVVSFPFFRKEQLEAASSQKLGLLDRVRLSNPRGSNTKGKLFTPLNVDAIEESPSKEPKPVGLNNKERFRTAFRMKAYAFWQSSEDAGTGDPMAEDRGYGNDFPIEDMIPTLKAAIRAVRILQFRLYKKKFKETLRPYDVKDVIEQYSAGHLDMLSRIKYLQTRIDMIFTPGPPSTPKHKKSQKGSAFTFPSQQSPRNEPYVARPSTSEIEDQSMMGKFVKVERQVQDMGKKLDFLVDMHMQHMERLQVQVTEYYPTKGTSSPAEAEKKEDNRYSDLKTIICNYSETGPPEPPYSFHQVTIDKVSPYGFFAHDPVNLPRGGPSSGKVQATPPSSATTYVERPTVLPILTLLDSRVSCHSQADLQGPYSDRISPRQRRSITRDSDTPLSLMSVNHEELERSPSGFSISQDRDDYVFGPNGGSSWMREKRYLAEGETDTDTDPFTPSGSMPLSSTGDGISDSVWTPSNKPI

[4] = molecular target: Voltage-gated potassium channel, KQT; KCNQ2(Kv7.2)/KCNQ3(Kv7.3) (Homo sapiens) (UniProt O43526+O43525); assay: as §1; format: cell-based; settings: CHO-K1
[5] = Permeability in dog RRCK cells after 2 hrs by transwell assay; format: ADME, cell-based, Canis lupus familiaris, MDCKII-LE; settings: mdck, read-out: permeability
MDCK = assay: Efflux ratio of permeability from basolateral to apical over apical to basolateral side in MDCK cells transfected with MDR1; format: ADME, cell-based, Canis lupus familiaris; settings: dog
Liver microsome = assay: Stability in human liver microsomes in absence of NADPH; format: ADME

SMILES | IC50 [1] [nM] | CLint scaled [2] [mL/min/kg] | EC50 [3] [nM] | max activation [4] [%] | Papp at 2 h [5] [×10⁻⁶ cm/s] | Ratio (MDCK) | Stability (Liver microsome)
COc1nc(N2CCCCC2)nc(OC)c1NC(=O)CC(C)(C)C | > 300000 | 43.7 | 64 | 182 | 22.3 | 1.59 | 
COCCN(C)c1nc(OC)c(NC(=O)CC(C)(C)C)c(OC)n1 | > 300000 | 21 | 206 | 166 |  | 1.11 | 
COc1nc(N2CCC(OC)CC2)nc(OC)c1NC(=O)CCC1CCCC1 | 80500 |  | 40 | 126 | 15.2 | 1.21 | Unstable
COc1nc(N2CCC(OC)CC2)nc(OC)c1NC(=O)CC(C)C |  |  | 630 | 138 |  |  | 
COc1nc(N2CC(OC)C2)nc(OC)c1NC(=O)CC(C)(C)C |  |  | 961 | 103 |  |  | 
COc1nc(N2CCSCC2)nc(OC)c1NC(=O)CC(C)(C)C |  | 69.6 | 24 | 92 |  |  | 
COc1nc(N2CCC(OC)CC2)nc(OC)c1NC(=O)CC1CCCC1 |  |  | 343 | 143 |  |  | 
COc1nc(N2CCC(OC(C)C)CC2)nc(OC)c1NC(=O)CC(C)(C)C |  |  | 358 | 145 |  |  | 
COc1nc(N2CCC(OC)CC2)nc(OC)c1NC(=O)CC1CCCCC1 |  |  | 162 | 152 |  |  | 
CCOC(=O)Nc1ccc(NCc2ccc(F)cc2)cc1N [EZOGABINE] | 213000 | < 8 |  |  | 34.2 | 1.13 | 
COc1nc(N2CCCOCC2)nc(OC)c1NC(=O)CC(C)(C)C | > 300000 | 24.4 | 62 | 85 | 20.2 | 1.25 | 
COc1nc(N2CC(F)(F)C2)nc(OC)c1NC(=O)CC(C)(C)C | > 300000 | 18.9 | 110 | 103 | 28 | 1.29 | 
COc1nc(N2C[C@@H]3C[C@H]2CO3)nc(OC)c1NC(=O)CC(C)(C)C |  |  | 1890 | 101 |  |  | 
COc1nc(N2CCC(OC)CC2)nc(OC)c1NC(=O)CCC(C)C |  |  | 304 | 132 |  |  | 
COc1nc(N2CCOCC2)nc(OC)c1NC(=O)CC(C)(C)C | > 300000 | < 10.4 | 164 | 95 | 25.9 | 1.11 | 
COc1nc(N2CCC(F)(F)CC2)nc(OC)c1NC(=O)CC(C)(C)C | > 300000 | 21.6 | 50 | 99 |  | 1.29 | 
COc1nc(N2CC3(COC3)C2)nc(OC)c1NC(=O)CC(C)(C)C |  |  | 9190 | 106 |  |  | 
